From the kinase profiling compilation of Christmann-Franck et al. (2016)
pIC50: −log10 of the molar value.

Legend:
[1] = target: HCK (human) (UniProt P08631)
[2] = target: MERTK (human) (UniProt Q12866)
[3] = target: FRK (human) (UniProt P42685)
[4] = target: PRKAA1 (human) (UniProt Q13131)
[5] = target: TNK2 (human) (UniProt Q07912)
[6] = target: ULK3 (human) (UniProt Q6PHR2)
[7] = target: NLK (human) (UniProt Q9UBE8)
[8] = target: TAOK1 (human) (UniProt Q7L7X3)
[9] = target: TEC (human) (UniProt P42680)
[10] = target: MAP3K11 (human) (UniProt Q16584)
[11] = target: MAP3K4 (human) (UniProt Q9Y6R4)
Chain of MAP3K4 (human) (Q9Y6R4 whole entry, looked up): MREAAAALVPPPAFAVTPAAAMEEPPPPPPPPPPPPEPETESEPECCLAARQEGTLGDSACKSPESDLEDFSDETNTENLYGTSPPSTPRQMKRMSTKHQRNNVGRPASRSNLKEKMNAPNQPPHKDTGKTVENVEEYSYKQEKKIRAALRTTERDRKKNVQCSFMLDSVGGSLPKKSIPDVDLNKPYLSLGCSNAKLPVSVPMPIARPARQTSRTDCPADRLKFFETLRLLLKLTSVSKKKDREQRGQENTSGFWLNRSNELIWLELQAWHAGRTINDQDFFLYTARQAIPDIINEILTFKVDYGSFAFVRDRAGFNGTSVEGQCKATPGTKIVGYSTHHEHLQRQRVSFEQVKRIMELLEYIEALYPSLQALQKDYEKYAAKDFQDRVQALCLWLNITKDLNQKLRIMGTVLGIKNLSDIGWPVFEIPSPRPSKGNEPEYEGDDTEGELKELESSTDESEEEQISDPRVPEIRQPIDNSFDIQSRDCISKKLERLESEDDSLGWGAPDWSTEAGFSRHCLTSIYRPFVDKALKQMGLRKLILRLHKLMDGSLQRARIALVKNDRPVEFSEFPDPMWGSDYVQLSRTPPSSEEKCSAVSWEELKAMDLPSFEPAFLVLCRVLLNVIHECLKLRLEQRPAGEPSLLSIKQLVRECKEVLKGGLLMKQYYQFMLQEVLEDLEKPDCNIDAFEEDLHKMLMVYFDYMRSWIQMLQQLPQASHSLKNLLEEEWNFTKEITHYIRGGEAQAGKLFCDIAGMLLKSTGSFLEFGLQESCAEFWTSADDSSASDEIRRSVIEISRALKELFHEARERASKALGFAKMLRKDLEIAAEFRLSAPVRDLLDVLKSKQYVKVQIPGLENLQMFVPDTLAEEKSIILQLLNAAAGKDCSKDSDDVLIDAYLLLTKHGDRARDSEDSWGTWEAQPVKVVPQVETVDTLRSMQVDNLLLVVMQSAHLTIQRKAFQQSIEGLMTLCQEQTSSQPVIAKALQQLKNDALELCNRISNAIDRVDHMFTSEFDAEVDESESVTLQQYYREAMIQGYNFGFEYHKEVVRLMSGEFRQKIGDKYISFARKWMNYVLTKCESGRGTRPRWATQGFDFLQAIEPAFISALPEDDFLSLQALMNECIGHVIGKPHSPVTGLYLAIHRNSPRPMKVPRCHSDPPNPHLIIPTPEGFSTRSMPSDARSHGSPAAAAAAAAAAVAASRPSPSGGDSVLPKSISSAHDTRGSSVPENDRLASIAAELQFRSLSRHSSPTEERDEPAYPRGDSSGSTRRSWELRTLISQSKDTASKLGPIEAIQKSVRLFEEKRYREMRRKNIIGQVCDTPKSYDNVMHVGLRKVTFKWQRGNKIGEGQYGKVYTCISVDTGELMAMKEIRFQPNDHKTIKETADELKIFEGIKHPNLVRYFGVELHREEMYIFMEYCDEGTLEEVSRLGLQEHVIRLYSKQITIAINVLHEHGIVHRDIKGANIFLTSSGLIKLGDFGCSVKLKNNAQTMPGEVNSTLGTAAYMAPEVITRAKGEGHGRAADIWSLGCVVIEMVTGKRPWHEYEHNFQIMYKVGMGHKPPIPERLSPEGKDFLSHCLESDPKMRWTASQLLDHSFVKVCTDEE

[12] = target: SYK (human) (UniProt P43405)
[13] = target: MAP4K5 (human) (UniProt Q9Y4K4)
[14] = target: CAMK2G (human) (UniProt Q13555)
[15] = target: CSK (human) (UniProt P41240)
[16] = target: MAP3K3 (human) (UniProt Q99759)
[17] = target: EIF2AK1 (human) (UniProt Q9BQI3)
[18] = target: RPS6KA3 KD1 KD2 (human) (UniProt P51812)
[19] = target: ACVR1B (human) (UniProt P36896)
[20] = target: SMG1 (human) (UniProt Q96Q15)
[21] = target: SIK3 (human) (UniProt Q9Y2K2)
[22] = target: EPHB1 (human) (UniProt P54762)
[23] = target: PTK2B (human) (UniProt Q14289)
[24] = target: BTK (human) (UniProt Q06187)
[25] = target: TBK1 (human) (UniProt Q9UHD2)
[26] = target: PRKCQ (human) (UniProt Q04759)
[27] = target: MAP4K2 (human) (UniProt Q12851)
Chain of MAP4K2 (human) (Q12851 whole entry, looked up): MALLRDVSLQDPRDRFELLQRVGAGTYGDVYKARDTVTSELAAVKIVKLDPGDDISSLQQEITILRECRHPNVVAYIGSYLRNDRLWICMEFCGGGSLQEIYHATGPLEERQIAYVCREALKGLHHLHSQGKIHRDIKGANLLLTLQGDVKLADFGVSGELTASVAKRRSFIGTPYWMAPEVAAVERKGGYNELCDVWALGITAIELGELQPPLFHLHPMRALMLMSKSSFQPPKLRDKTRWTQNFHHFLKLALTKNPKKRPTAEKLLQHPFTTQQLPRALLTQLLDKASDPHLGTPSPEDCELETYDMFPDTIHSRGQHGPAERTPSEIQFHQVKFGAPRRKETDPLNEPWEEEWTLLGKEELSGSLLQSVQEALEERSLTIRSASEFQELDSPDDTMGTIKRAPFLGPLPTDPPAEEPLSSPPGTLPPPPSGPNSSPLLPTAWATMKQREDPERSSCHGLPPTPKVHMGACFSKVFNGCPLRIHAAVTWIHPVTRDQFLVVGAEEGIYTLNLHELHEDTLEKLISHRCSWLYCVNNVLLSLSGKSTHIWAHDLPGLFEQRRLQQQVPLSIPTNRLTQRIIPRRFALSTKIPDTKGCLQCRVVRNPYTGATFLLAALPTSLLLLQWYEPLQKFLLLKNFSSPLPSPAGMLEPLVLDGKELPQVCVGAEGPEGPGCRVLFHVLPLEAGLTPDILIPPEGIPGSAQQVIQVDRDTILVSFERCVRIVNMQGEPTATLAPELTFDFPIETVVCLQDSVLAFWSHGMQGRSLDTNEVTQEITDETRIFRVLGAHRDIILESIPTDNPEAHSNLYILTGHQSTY

[28] = target: CAMKK2 (human) (UniProt Q96RR4)
[29] = target: MAP3K1 (human) (UniProt Q13233)
[30] = target: BMP2K (human) (UniProt Q9NSY1)
Chain of BMP2K (human) (Q9NSY1 whole entry, looked up): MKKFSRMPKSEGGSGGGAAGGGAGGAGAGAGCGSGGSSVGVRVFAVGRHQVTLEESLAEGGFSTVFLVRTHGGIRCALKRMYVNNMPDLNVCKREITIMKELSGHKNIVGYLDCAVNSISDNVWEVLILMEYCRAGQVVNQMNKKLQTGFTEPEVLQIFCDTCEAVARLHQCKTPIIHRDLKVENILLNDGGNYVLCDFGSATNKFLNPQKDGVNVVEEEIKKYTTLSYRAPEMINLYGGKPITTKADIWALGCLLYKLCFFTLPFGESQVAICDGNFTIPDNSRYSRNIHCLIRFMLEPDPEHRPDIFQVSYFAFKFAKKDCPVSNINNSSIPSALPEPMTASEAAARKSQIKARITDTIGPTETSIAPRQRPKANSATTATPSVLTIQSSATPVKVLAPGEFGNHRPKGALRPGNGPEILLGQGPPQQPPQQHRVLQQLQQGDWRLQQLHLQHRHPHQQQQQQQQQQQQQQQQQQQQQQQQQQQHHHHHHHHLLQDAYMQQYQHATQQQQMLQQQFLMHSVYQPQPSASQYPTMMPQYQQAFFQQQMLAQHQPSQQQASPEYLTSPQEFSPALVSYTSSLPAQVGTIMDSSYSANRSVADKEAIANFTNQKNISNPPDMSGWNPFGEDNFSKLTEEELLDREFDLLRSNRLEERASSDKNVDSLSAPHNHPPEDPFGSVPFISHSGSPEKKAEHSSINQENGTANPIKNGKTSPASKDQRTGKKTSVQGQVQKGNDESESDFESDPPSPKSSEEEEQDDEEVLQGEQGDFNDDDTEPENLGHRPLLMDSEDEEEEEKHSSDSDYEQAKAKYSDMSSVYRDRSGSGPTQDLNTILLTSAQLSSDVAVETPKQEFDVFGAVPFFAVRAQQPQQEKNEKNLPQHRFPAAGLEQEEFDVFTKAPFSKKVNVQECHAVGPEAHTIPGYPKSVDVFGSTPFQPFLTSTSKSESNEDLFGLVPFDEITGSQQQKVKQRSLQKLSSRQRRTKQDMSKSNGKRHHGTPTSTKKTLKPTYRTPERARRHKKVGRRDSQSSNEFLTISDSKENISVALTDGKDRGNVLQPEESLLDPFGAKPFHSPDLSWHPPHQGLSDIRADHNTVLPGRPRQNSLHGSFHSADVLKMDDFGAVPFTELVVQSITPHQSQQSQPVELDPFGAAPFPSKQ

[31] = target: CLK2 (human) (UniProt P49760)
[32] = target: ABL2 (human) (UniProt P42684)

Chain of TNK2 (human) (Q07912 whole entry, looked up): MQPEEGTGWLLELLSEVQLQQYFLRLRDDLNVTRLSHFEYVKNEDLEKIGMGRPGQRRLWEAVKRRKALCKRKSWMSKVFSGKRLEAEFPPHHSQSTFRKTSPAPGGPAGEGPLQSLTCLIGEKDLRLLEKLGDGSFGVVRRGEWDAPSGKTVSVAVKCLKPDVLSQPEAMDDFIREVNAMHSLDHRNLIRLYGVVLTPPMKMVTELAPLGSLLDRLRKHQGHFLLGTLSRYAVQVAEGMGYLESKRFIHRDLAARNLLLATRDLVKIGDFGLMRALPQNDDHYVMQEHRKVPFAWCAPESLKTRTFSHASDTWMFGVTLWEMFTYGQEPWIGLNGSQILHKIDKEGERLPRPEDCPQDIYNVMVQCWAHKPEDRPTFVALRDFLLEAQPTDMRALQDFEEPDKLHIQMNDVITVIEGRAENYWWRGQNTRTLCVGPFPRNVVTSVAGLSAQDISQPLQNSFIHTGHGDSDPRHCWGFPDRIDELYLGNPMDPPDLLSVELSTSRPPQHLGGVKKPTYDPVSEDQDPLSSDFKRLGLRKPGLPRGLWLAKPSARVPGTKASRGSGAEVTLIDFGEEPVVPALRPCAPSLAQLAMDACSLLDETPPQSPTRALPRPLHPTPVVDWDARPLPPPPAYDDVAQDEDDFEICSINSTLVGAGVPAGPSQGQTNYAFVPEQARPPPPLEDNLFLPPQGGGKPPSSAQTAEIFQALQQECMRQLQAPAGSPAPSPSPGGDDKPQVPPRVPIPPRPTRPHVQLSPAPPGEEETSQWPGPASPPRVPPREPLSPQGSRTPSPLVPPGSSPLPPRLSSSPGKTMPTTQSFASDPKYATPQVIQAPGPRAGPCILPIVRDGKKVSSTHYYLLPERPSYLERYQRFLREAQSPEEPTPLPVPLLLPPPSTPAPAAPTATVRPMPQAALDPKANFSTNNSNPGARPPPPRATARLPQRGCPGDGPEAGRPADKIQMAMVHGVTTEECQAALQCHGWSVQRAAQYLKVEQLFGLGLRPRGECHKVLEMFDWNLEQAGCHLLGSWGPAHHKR
Chain of ULK3 (human) (Q6PHR2 whole entry, looked up): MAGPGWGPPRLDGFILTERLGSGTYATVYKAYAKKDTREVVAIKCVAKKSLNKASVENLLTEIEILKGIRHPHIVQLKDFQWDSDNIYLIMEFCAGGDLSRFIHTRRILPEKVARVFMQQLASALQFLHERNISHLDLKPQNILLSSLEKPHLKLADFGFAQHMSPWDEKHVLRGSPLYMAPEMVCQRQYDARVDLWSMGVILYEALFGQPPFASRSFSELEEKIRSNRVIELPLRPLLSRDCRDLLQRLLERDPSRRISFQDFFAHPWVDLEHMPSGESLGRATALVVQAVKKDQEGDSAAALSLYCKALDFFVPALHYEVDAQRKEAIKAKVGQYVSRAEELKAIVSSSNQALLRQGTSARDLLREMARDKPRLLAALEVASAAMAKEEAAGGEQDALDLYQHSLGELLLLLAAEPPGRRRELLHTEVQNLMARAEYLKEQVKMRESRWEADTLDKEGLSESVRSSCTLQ

COc1cc(Nc2c(C#N)cnc3cc(OCCCN4CCN(C)CC4)c(OC)cc23)c(Cl)cc1Cl
pIC50 [1]: 6.24
pIC50 [2]: 6.13
pIC50 [3]: 6.29
pIC50 [4]: 5.97
pIC50 [5]: 6.50
pIC50 [6]: 6.07
pIC50 [7]: 5.96
pIC50 [8]: 5.58
pIC50 [9]: 6.25
pIC50 [10]: 5.81
pIC50 [11]: 6.52
pIC50 [12]: 6.13
pIC50 [13]: 6.31
pIC50 [14]: 5.82
pIC50 [15]: 6.15
pIC50 [16]: 6.21
pIC50 [17]: 5.91
pIC50 [18]: 5.62
pIC50 [19]: 7.04
pIC50 [20]: 6.08
pIC50 [21]: 6.46
pIC50 [22]: 6.43
pIC50 [23]: 5.92
pIC50 [24]: 6.76
pIC50 [25]: 5.90
pIC50 [26]: 5.81
pIC50 [27]: 6.37
pIC50 [28]: 5.85
pIC50 [29]: 6.81
pIC50 [30]: 5.97
pIC50 [31]: 5.96
pIC50 [32]: 7.15
